Columns and labels:
[1] = biological target: Human recombinant S1PR1 lysophospholipid receptor membrane (Homo sapiens, UniProt P21453); assay: [^32P]S1P competitive binding assay, S1PR1
[2] = biological target: Human recombinant S1PR5 lysophospholipid receptor membrane (Homo sapiens, UniProt Q9H228); assay: [^32P]S1P competitive binding assay, S1PR5
[3] = biological target: Human recombinant S1PR3 lysophospholipid receptor membrane (Homo sapiens, UniProt Q99500); assay: [^32P]S1P competitive binding assay, S1PR3
[4] = biological target: T1, human recombinant S1PR4 lysophospholipid receptor membrane (Homo sapiens, UniProt O95977); assay: [^32P]S1P competitive binding assay, S1PR4
T1 sequence (O95977 1-384): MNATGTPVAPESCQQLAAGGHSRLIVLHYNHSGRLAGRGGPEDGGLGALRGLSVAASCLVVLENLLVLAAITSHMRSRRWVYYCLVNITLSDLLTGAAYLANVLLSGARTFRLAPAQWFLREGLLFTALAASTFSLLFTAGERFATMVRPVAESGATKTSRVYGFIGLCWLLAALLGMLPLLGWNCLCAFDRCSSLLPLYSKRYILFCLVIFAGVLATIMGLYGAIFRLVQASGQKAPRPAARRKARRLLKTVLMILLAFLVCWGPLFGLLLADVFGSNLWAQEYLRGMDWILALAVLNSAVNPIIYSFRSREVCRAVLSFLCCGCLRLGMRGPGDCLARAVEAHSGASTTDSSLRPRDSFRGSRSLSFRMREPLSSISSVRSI

Measured: IC50

Human recombinant S1PR3 lysophospholipid receptor membrane, sequence (Q99500 whole entry): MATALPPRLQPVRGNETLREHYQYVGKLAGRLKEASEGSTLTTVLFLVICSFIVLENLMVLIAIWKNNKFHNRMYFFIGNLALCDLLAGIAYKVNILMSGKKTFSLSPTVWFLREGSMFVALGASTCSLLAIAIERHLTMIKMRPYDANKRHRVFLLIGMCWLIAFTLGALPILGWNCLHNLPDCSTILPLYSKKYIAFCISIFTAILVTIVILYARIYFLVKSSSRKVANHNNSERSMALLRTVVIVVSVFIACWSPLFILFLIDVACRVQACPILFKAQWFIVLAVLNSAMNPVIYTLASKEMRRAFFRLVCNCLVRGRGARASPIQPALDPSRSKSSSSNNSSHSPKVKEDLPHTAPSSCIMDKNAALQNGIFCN
Human recombinant S1PR1 lysophospholipid receptor membrane, sequence (P21453 whole entry): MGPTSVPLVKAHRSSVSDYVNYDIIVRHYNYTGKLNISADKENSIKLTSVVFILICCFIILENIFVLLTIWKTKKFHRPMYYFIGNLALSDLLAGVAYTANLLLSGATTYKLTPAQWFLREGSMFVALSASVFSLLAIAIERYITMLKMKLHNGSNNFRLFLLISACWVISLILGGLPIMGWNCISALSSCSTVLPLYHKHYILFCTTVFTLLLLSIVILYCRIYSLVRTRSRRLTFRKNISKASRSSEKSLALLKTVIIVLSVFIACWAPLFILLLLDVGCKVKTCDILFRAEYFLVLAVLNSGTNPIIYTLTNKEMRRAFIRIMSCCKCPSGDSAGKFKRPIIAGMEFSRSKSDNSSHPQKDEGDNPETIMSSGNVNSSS
Human recombinant S1PR5 lysophospholipid receptor membrane, sequence (Q9H228 whole entry): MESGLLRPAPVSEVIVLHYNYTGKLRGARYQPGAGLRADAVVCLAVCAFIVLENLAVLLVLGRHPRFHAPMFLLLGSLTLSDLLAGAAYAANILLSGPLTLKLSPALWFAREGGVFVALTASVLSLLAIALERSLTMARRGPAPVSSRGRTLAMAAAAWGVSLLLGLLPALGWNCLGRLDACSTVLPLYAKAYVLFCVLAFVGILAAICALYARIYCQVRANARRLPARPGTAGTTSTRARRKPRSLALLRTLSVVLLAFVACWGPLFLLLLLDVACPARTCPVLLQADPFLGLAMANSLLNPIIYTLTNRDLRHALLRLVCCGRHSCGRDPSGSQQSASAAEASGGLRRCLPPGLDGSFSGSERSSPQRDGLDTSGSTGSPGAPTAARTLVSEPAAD

COc1ccc(NC(=O)Cn2c(=O)c3ccccc3n(CC(=O)Nc3cc(I)c(OC)cc3OC)c2=O)cc1 [TZ6544, N-(5-iodo-2,4-dimethoxyphenyl)-2-(3-(2-((4-methoxyphenyl)amino)-2-oxoethyl)-2,4-dioxo-3,4-dihydroquinazolin-1(2H)-yl)acetamide]
> 1000 nM: all assays above
